For assay [1], the target named is GST-RIPK2 fusion protein (human RIPK2 amino acids 1-310) (Homo sapiens (Human), UniProt O43353). Nature of the assay: RIPK2 binding competition assay (TR-FRET, Tracer 199).
For assay [2], the system named is NF-κB pathway (SEAP) in THP1-Dual cells. Nature of the assay: THP-1 Dual cell SEAP assay (L18-MDP stimulated). Type of assay: cell-based. As to conditions: read-out: NFkB THP1 IC50.
Where [3] appears, read: read-out: RIPK2 IC50, RIPK2 binding competition assay.

SMILES strings stand for the structures. Like-named read-outs stand apart in the source and are kept apart here.

Sequence of GST-RIPK2 fusion protein (human RIPK2 amino acids 1-310) (O43353 1-310): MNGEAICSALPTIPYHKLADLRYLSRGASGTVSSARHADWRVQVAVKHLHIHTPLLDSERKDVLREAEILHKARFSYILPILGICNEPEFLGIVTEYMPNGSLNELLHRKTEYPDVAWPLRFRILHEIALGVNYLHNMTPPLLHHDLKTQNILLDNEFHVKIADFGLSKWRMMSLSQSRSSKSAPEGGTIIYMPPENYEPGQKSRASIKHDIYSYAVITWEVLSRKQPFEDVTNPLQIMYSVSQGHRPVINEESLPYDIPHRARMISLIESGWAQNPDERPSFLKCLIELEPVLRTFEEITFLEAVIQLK

Consider `CCCS(=O)(=O)Nc1cc(-c2cnc3cc(OC)c(S(=O)(=O)C(C)(C)C)cn23)cc(C#N)c1OC` [Example 259, N-(5-(6-(tert-butylsulfonyl)-7-methoxyimidazo[1,2-a]pyridin-3-yl)-3-cyano-2-methoxyphenyl)propane-1-sulfonamide], for which the IC50 lay within 2.5 to 20 nM in assay [1] and 250 to 1000 nM in assay [2] (Homo sapiens, THP1-Dual).
For `COc1cc2ncc(-c3cc(C#N)c(OC)c(NS(C)(=O)=O)c3)n2cc1S(=O)(=O)C(C)(C)C` [Example 260, N-(5-(6-(tert-butylsulfonyl)-7-methoxyimidazo[1,2-a]pyridin-3-yl)-3-cyano-2-methoxyphenyl)methane-sulfonamide], in that order: 2.5 to 20 nM and more than 1000 nM.
In the case of `COc1cc2ncc(-c3cccc(NS(C)(=O)=O)c3)n2cc1S(=O)(=O)C(C)(C)C` [Example 261, N-(3-(6-(tert-butylsulfonyl)-7-methoxyimidazo[1,2-a]pyridin-3-yl)phenyl)methanesulfon-amide], the IC50 was 2.5 to 20 nM in assay [1] and more than 1000 nM in assay [2] (Homo sapiens, THP1-Dual).
For `CCCS(=O)(=O)Nc1cc(-c2cnc3cc(OC)c(S(=O)(=O)C(C)(C)C)cn23)cc(F)c1C` [Example 262, N-(5-(6-(tert-butylsulfonyl)-7-methoxyimidazo[1,2-a]pyridin-3-yl)-3-fluoro-2-methylphenyl)propane-1-sulfonamide], in that order: 2.5 to 20 nM and 250 to 1000 nM.
For `CCCS(=O)(=O)Nc1c(F)c(-c2cnc3cc(OC)c(S(=O)(=O)C(C)(C)C)cn23)cc(F)c1OC` [Example 263, N-(3-(6-(tert-butylsulfonyl)-7-methoxyimidazo[1,2-a]pyridin-3-yl)-2,5-difluoro-6-methoxyphenyl)propane-1-sulfonamide], in that order: 2.5 to 20 nM and 250 to 1000 nM.
As to `COc1cc(-c2cnc3cc(OC)c(S(=O)(=O)C(C)(C)C)cn23)cc(NS(C)(=O)=O)n1` [Example 264, N-(4-(6-(tert-butylsulfonyl)-7-methoxyimidazo[1,2-a]pyridin-3-yl)-6-methoxypyridin-2-yl)methanesulfonamide], the IC50 lay within 2.5 to 20 nM in assay [1] and 250 to 1000 nM in assay [2] (Homo sapiens, THP1-Dual).
For `CCCS(=O)(=O)Nc1cc(-c2cnc3cc(OC)c(S(=O)(=O)C(C)(C)C)cn23)cnc1OC` [Example 265, N-(5-(6-(tert-butylsulfonyl)-7-methoxyimidazo[1,2-a]pyridin-3-yl)-2-methoxypyridin-3-yl)propane-1-sulfonamide], the IC50 is 2.5 to 20 nM in assay [1] and 50 to 250 nM in assay [2] (Homo sapiens, THP1-Dual).
On to `CCCS(=O)(=O)Nc1cc(-c2cnc3cc(OC)c(S(=O)(=O)C(C)(C)C)cn23)cc(F)c1F` [Example 266, N-(5-(6-(tert-butylsulfonyl)-7-methoxyimidazo[1,2-a]pyridin-3-yl)-2,3-difluorophenyl)propane-1-sulfonamide], for which the IC50 in assay [1] is 1 to 2.5 nM; in assay [2] (Homo sapiens, THP1-Dual) it was 250 to 1000 nM.
For `CCCS(=O)(=O)Nc1cc(-c2cnc3cc(OC)c(S(=O)(=O)C(C)(C)C)cn23)cc(OC)c1F` [Example 267, N-(5-(6-(tert-butylsulfonyl)-7-methoxyimidazo[1,2-a]pyridin-3-yl)-2-fluoro-3-methoxyphenyl)propane-1-sulfonamide], in that order: 1 to 2.5 nM and 250 to 1000 nM.
`CCCS(=O)(=O)Nc1cc(-c2cnc3cc(OC)c(S(=O)(=O)C(C)(C)C)cn23)cc(C)c1OC` [Example 268, N-(5-(6-(tert-butylsulfonyl)-7-methoxyimidazo[1,2-a]pyridin-3-yl)-2-methoxy-3-methylphenyl)propane-1-sulfonamide]: the IC50 in assay [1] was in the range of 1 to 2.5 nM; in assay [2] (Homo sapiens, THP1-Dual), 50 to 250 nM.
For the compound `CCCS(=O)(=O)Nc1cccc(-c2cnc3cc(OC)c(S(=O)(=O)C(C)(C)C)cn23)c1` [Example 269, N-(3-(6-(tert-butylsulfonyl)-7-methoxyimidazo[1,2-a]pyridin-3-yl)phenyl)propane-1-sulfonamide], the IC50 in assay [1] was in the range of 1 to 2.5 nM; in assay [2] (Homo sapiens, THP1-Dual), 250 to 1000 nM.
For `CCCS(=O)(=O)Nc1cc(-c2cnc3cc(OC)c(S(=O)(=O)C(C)(C)C)cn23)cc(F)c1OCC` [Example 270, N-(5-(6-(tert-butylsulfonyl)-7-methoxyimidazo[1,2-a]pyridin-3-yl)-2-ethoxy-3-fluorophenyl)propane-1-sulfonamide], in that order: 1 to 2.5 nM and 250 to 1000 nM.
For `CCCS(=O)(=O)Nc1cc(-c2cnc3cc(OC)c(S(=O)(=O)C(C)(C)C)cn23)ccc1OC(F)F` [Example 271, N-(5-(6-(tert-butylsulfonyl)-7-methoxyimidazo[1,2-a]pyridin-3-yl)-2-(difluoromethoxy)phenyl) propane-1-sulfonamide], in that order: 1 to 2.5 nM and less than 50 nM.
As for `COc1cc2ncc(-c3cc(F)c(OC)c(NS(C)(=O)=O)c3)n2cc1S(=O)(=O)C(C)(C)C` [Example 272, N-(5-(6-(tert-butylsulfonyl)-7-methoxyimidazo[1,2-a]pyridin-3-yl)-3-fluoro-2-methoxyphenyl)methane-sulfonamide], the IC50 is 1 to 2.5 nM in assay [1] and 50 to 250 nM in assay [2] (Homo sapiens, THP1-Dual).
As for `CCCS(=O)(=O)Nc1cc(-c2cnc3cc(OC)c(S(=O)(=O)C4CC4)cn23)cc(OC)c1OC` [Example 274, N-(5-(6-(cyclopropylsulfonyl)-7-methoxyimidazo[1,2-a]pyridin-3-yl)-2,3-dimethoxyphenyl)propane-1-sulfonamide], the IC50 is less than 1 nM in assay [1] and 50 to 250 nM in assay [2] (Homo sapiens, THP1-Dual).
For `CCCS(=O)(=O)Nc1cc(-c2cnc3cc(OC)c(S(=O)(=O)C(C)(C)C)cn23)cc(F)c1OC` [Example 275, N-(5-(6-(tert-butylsulfonyl)-7-methoxyimidazo[1,2-a]pyridin-3-yl)-3-fluoro-2-methoxyphenyl)propane-1-sulfonamide], in that order: less than 1 nM and less than 50 nM.
Regarding `CCS(=O)(=O)Nc1cccc(-c2cnc3cc(OC)c(S(=O)(=O)C(C)(C)C)cn23)c1` [Example 276, N-(3-(6-(tert-butylsulfonyl)-7-methoxyimidazo[1,2-a]pyridin-3-yl)phenyl)ethanesulfon-amide], the IC50 in assay [1] (setting [3]) lay in the range of 2.5 to 20 nM; in assay [2], 250 to 1000 nM.
For the compound `COc1cc2ncc(-c3cccc(NS(=O)(=O)C(C)(C)C)c3)n2cc1S(=O)(=O)C(C)(C)C` [Example 277, N-(3-(6-(tert-butylsulfonyl)-7-methoxyimidazo[1,2-a]pyridin-3-yl)phenyl)-2-methylpropane-2-sulfonamide], the IC50 is 2.5 to 20 nM in assay [1] and less than 50 nM in assay [2] (Homo sapiens, THP1-Dual).
Turning to `COc1cc2ncc(-c3cccc(NS(=O)(=O)C(C)C)c3)n2cc1S(=O)(=O)C(C)(C)C` [Example 278, N-(3-(6-(tert-butylsulfonyl)-7-methoxyimidazo[1,2-a]pyridin-3-yl)phenyl)propane-2-sulfonamide], the IC50 is 2.5 to 20 nM in assay [1] and 250 to 1000 nM in assay [2] (Homo sapiens, THP1-Dual).
For the compound `COc1cc2ncc(-c3cc(F)c(OC)c(NS(=O)(=O)CC(C)C)c3)n2cc1S(=O)(=O)C(C)(C)C` [Example 279, N-(5-(6-(tert-butylsulfonyl)-7-methoxyimidazo[1,2-a]pyridin-3-yl)-3-fluoro-2-methoxyphenyl)-2-methylpropane-1-sulfonamide], the IC50 is less than 1 nM in assay [1] and less than 50 nM in assay [2] (Homo sapiens, THP1-Dual).
For `COc1cc2ncc(-c3cccc(NS(=O)(=O)CC(C)C)c3)n2cc1S(=O)(=O)C(C)(C)C` [Example 280, N-(3-(6-(tert-butylsulfonyl)-7-methoxyimidazo[1,2-a]pyridin-3-yl)phenyl)-2-methylpropane-1-sulfonamide], in that order: 1 to 2.5 nM and 250 to 1000 nM.
As for `CCCS(=O)(=O)Nc1cc(-c2cnn3ccc(S(=O)(=O)C(C)(C)C)cc23)ccc1OC` [Example 281, N-(5-(5-(tert-butylsulfonyl)pyrazolo[1,5-a]pyridin-3-yl)-2-methoxyphenyl)propane-1-sulfonamide], the IC50 in assay [1] lay in the range of 2.5 to 20 nM; in assay [2] (Homo sapiens, THP1-Dual), 250 to 1000 nM.
For `CCCS(=O)(=O)Nc1cc(C#N)cc(-c2cnc3cc(OC)c(S(=O)(=O)C(C)(C)C)cn23)c1` [Example 282, N-(3-(6-(tert-butylsulfonyl)-7-methoxyimidazo[1,2-a]pyridin-3-yl)-5-cyanophenyl)propane-1-sulfonamide], in that order: 2.5 to 20 nM and more than 1000 nM.
Take `CCCS(=O)(=O)Nc1cc(OC)cc(-c2cnn3ccc(S(=O)(=O)C(C)(C)C)cc23)c1` [Example 283, N-(3-(5-(tert-butylsulfonyl)pyrazolo[1,5-a]pyridin-3-yl)-5-methoxyphenyl)propane-1-sulfonamide]: the IC50 in assay [1] lay in the range of 2.5 to 20 nM; in assay [2] (Homo sapiens, THP1-Dual), 250 to 1000 nM.
With `CCCS(=O)(=O)Nc1cc(-c2cnc3cc(OC)c(S(=O)(=O)C(C)(C)C)cn23)cc(F)c1OC(F)F` [Example 284, N-(5-(6-(tert-butylsulfonyl)-7-methoxyimidazo[1,2-a]pyridin-3-yl)-2-(difluoromethoxy)-3-fluorophenyl)propane-1-sulfonamide], the IC50 in assay [1] is 1 to 2.5 nM; in assay [2] (Homo sapiens, THP1-Dual), 50 to 250 nM.
For the compound `COc1cc2ncc(-c3cc(NS(C)(=O)=O)c(OC)c(OC)c3)n2cc1S(=O)(=O)C(C)(C)C` [Example 285, N-(5-(6-(tert-butylsulfonyl)-7-methoxyimidazo[1,2-a]pyridin-3-yl)-2,3-dimethoxyphenyl)methane sulfonamide], the IC50 in assay [1] (setting [3]) is less than 1 nM; in assay [2] (Homo sapiens, THP1-Dual) it was less than 50 nM.
On to `CCCS(=O)(=O)Nc1cc(-c2cnc3cc(OC)c(S(=O)(=O)C(C)(C)C)cn23)cnc1OC(F)F` [Example 286, N-(5-(6-(tert-butylsulfonyl)-7-methoxyimidazo[1,2-a]pyridin-3-yl)-2-(difluoromethoxy)pyridin-3-yl)propane-1-sulfonamide], for which the IC50 is 2.5 to 20 nM in assay [1] and more than 1000 nM in assay [2] (Homo sapiens, THP1-Dual).
For `CCCS(=O)(=O)Nc1ccc(F)c(-c2cnc3cc(OC)c(S(=O)(=O)C(C)(C)C)cn23)c1` [Example 287, N-(3-(6-(tert-butylsulfonyl)-7-methoxyimidazo[1,2-a]pyridin-3-yl)-4-fluorophenyl)propane-1-sulfonamide], the IC50 in assay [1] (setting [3]) is more than 20 nM; in assay [2] (Homo sapiens, THP1-Dual), more than 1000 nM.
